# Measured values taken from US4359465A, “Methods for treating gastrointestinal inflammation” (The Upjohn Company, priority 1980, dated 1982).
# Tests used:
# [1] = system: gastric acid secretion; assay: Inhibition of pentagastrin-stimulated gastric acid secretion in conscious gastric fistula dogs; type: in vivo; conditions: Canis lupus familiaris, dog, intraduodenal, read-out: Effect % inhibition (peak inhibitory effect on gastric acid secretion)
# Description: To determine the gastric acid secretion inhibitory properties, experiments have been performed on conscious dogs provided with gastric fistulas of conventional type and duodenal fistules, the latter ones used for direct introduodenal administration of the test compounds. After 18 hours starvation and deprivation of water the dogs were given subcutaneous infusion of pentagastrin (1-4 nmol/kg, h) lasting for 6-7 hours. Gastric juice was collected in consecutive 30 minutes samples. An aliquot of each sample was titrated with 0.1 N NaOH to […] for titrable acid concentration using an automatic titrator and pH-meter (Radiometer, Copenhagen, Denmark). Acid output was calculated as mmol H^+ /60 minutes. The percent inhibition compared to control experiments was calculated for each compound and the peak inhibitory effect is given in Table 2 below. The test compounds, suspended in 0.5% Methocel® (methyl cellulose), were given intraduodenally in doses from 4-20 μmol/kg when the secretory response to pentagastrin has reached a steady level. In the test prior known compounds were compared with the compounds of the present invention as will be evident from the Table 2 below. The following gastric acid inhibiting effect data were obtained for a number of compounds tested according to the method described.
# [2] = system: Indomethacin-Induced Small Bowel Ulceration; conditions: rat; Kauffman et al. (1979), title; cited from earlier work
# [3] = system: gastric secretion; conditions: in vivo; cited from earlier work
# [4] = system: Cytoprotection Against Acidified Aspirin; conditions: Robert, Gastroenterology 76:1227 (1979); cited from earlier work
# [5] = system: ethanol-induced gastric lesions; assay: Ethanol-induced gastric lesions (80% aqueous ethanol challenge), part A; type: in vivo, rat; conditions: rats; for gastric ulceration: oral 0.3, 1, 3, or 10 mg/kg, 30 min before 1 ml 80% ethanol, examined 1 hr later
# Description: A. Four groups of rats, standard laboratory animals for determining cytoprotective effects of pharmacological agents, are fasted for 24 hr and then treated orally with (a) […], (b) cimetidine, (c) a cytoprotective prostaglandin, or (d) vehicle (10% Emulphor, 10% EtOH, 80% water). Thirty min later, the rats are challenged with an oral 1 ml dose of 80% aqueous ethanol, a standard agent for inducing gastric cytodestruction. One hr later, the rats are sacrificed (carbon dioxide asphyxiation) and the gastric tissues examined.
# [6] = system: gastric acid secretion; assay: Gastric acid secretion inhibition in the rat; type: in vivo
# [7] = system: thermally induced gastric ulceration; assay: Thermally induced gastric ulceration (boiling water); type: in vivo, rat; conditions: for ulcer incidence score (ulcers/stomach): rats, control score 8.0
# [8] = Gastric volume / gastric emptying experiment, part B; type: in vivo, rat; conditions: rats, oral 0.01, 0.1, or 1.0 mg/kg; 5, 15, and 30 min after ingestion
# Description: B. A further experiment is undertaken to rule out gastric emptying as a factor in the cytoprotection observed in part A above. In this experiment timoprazole was given orally at 0.01, 0.1, or 1.0 mg/kg to groups of rats and a further group of rats is treated with vehicle (same as in part A) only. As above, the rats are faster for 24 hr prior to treatment. Groups of rats are then sacrificed 5, 15, and 30 min after timoprazole ingestion. […] Accordingly, flluid accumulation in the stomach is not a factor in the cytoprotection observed in part A.
# [9] = system: ethanol-induced gastric lesions; assay: Ethanol challenge with or without indomethacin pretreatment, part D; type: in vivo, rat; conditions: timoprazole 5 mg/kg orally, indomethacin 1 hr prior
# Description: D. Because mild gastric irritants, e.g., 20% ethanol, are known to stimulate endogenous prostaglandin production, with consequent cytoprotection effects being observed, a further experiment is undertaken to determine whether timoprazole acts as a mild irritant (i.e., by stimulating endogenous cytoprotective prostaglandin production), or exerts a directly cytoprotective effect. In this experiment, rats are treated with timoprazole (5 mg/kg orally), but in each group of rats half the animals are pretreated with a NOSAC, indomethacin, 1 hr prior to treatment with timoprazole. One hr after ethanol challenge, the rats are sacrificed. […] Accordingly, the cytoprotective effects of timoprazole are not mediated by endogenous prostaglandin production.
# [10] = system: ethanol-induced gastric ulceration; assay: Ethanol-induced gastric ulceration, less irritant vehicle, lowest dose protecting 50% of animals, part C; type: in vivo, rat; conditions: rats
# Source text: C. […] The rats are sacrificed one hr after timoprazole administration and the extent of gastric ulceration determined.
smiles,measurement,setting,value
"COC(=O)c1cc2nc([S+]([O-])Cc3cc(OC)c(C)cn3)[nH]c2cc1C (stereo not shown) [compound 18, 2-[2-(4-methoxy-5-methyl)-pyridylmethylsulfinyl]-(5-carbomethoxy-6-methyl)-benzimidazole]",inhibition in vivo at 0.5 µmol/kg,[1]; dose 0.5 μol/kg,90%
"Cc1cc(C)c2[nH]c([S+]([O-])Cc3ccccn3)nc2c1 (stereo not shown) [x (4-CH3,6-CH3, H, H, H, H), 2-[2-pyridylmethylsulfinyl]-(4,6-dimethyl)benzimidazole]",inhibition in vivo at 4 µmol/kg,[1],30%
"CN/C(=N/CCSCc1nc[nH]c1C)NC#N [cimetidine, N-cyano-N'-methyl-N""[2-[[(5-methyl-1H-imidazol-4-yl)methyl]thio]ethyl]gunanidine]",inhibition of indomethacin-induced small bowel ulceration,[2],Does Not Inhibit
same,inhibition of gastric secretion,[3],highly potent inhibitor of gastric secretion
same,cytoprotective effects,[4],devoid of appreciable cytoprotective effects
same,gastric ulceration,[5],all demonstrate gastric ulcers
same,number of ulcers,"[5]; oral 0.3, 1.0, 3.0 or 10.0 mg/kg, 30 min before 80% ethanol",slight decrease in the number of ulcers
"[O-][S+](Cc1ccccn1)c1nc2ccccc2[nH]1 (stereo not shown) [timoprazole, 2-[2-pyridylmethylsulfinyl]benzimidazole]",ED50,[6]; in the rat,~10 mg/kg
same,ED50 for gastric acid secretion inhibition relative to lowest cytoprotective dose observed,"[6]; rat, ratio to lowest cytoprotective dose of part A",at least ten
same,inhibition in vivo at 4 µmol/kg,[1],50%
same,ulcer incidence score (ulcers/stomach),[7]; 0.3 mg/kg,7.6
same,ulcer incidence score (ulcers/stomach),[7]; 1.0 mg/kg,5.0
same,ulcer incidence score (ulcers/stomach),[7]; 3.0 mg/kg,3.9
same,ulcer incidence score (ulcers/stomach),[7]; 10.0 mg/kg,4.0
same,incidence and severity of ulcers as compared to vehicle,"[7]; rats, 0.3, 1.0, 3.0, and 10.0 mg/kg",uniform reduction in the incidence and severity of ulcers
same,changes in gastric volume versus vehicle,[8],No significant changes in gastric volume
same,gastric ulceration (dose 0.3 mg/kg),"[5]; oral 0.3 mg/kg, 30 min before 80% ethanol",traces of mild ulceration
same,gastric ulceration,[5],no gastric ulceration
same,difference between rats receiving indomethacin and those not receiving it,[9],no significant difference
same,ED50,"[10]; Rattus norvegicus, read-out: ED50 (lowest dose at which 50% of the animals treated exhibit no gastric ulceration), oral, vehicle 5% EtOH, 1% Emulphor in water",< 1 mg/kg
same,"reduction in ulceration, oral administration","[10]; oral 1, 3, or 10 mg/kg, 30 min before ethanol challenge",significant reduction in ulceration at all dosages tested
same,"reduction of number of ulcers, subcutaneous administration","[10]; subcutaneous 1, 3, or 10 mg/kg, 30 min before ethanol challenge",did not significantly reduce the number of ulcers
